Molecules are shown by their SMILES.

The nature of one data set: method code SF, from DOI: 10.1002/qsar.19890080404.
A word on the logP: it is the decadic logarithm of the partition coefficient of the neutral form, usually between octanol and water. `NC(=S)c1cccs1` had a logP of 1.34.

`O=C(O)c1c[nH]c2ccccc12` registered a logP of 1.99.

`CC(=O)c1c[nH]c2ccccc12` yielded a logP of 2.06.

`CC(=O)Nc1ccc2[nH]c(C)cc2c1` came in with a log partition coefficient (logP) of 1.22.

In turn, `N#Cc1ccc[nH]1` yielded a logP of 1.13.

In turn, `CS(=O)(=O)c1cccs1` displayed a logP of 0.38.

`O=Cc1c[nH]c2ccccc12` showed a logP of 1.69.

As for `CCOC(=O)c1c[nH]cc1C`, the logP was 2.05.

Take `O=Cc1ccc[nH]1`: the logP came to 0.64.

Test in another data set: not given
Compound `O=[N+]([O-])c1cccc2cc[nH]c12` gave a logP of 2.63.

Regarding `N#Cc1cccc2[nH]ccc12`, the logP was found to be 2.46.

For the compound `CCOc1ccc2cc[nH]c2c1`, the logP is 2.53.

As for `O=CNc1ccc2[nH]ccc2c1`, the logP was found to be 1.07.

As to `CC(=O)C=Cc1ccco1`, the logP was 1.35.

In the case of `NCc1ccco1`, the logP worked out at 0.37.

Take `O=[N+]([O-])c1ccc2sccc2c1`: the logP amounted to 2.92.

`COc1ccco1` came in with a logP of 1.44.

Consider `N#Cc1ccc2cc[nH]c2c1`, for which the logP turned out to be 2.38.

`N#Cc1ccc2[nH]ccc2c1` yielded a logP of 2.36. The logP values of the last two compounds are within 0.2 log units of each other.

`NC(=O)c1ccc2[nH]ccc2c1` had a logP of 0.87.

The compound `COC(=O)c1ccc2[nH]ccc2c1` returned a logP of 2.58.

`Cc1cccc2cc[nH]c12` came in with a logP of 2.56.

On to `CN(C)C(=O)c1ccco1`, for which the logP was 0.41.

Consider `O=[N+]([O-])/C=C/c1cccs1`, for which the logP turned out to be 1.96.

`Brc1ccoc1` gave a logP of 2.18.

For the compound `O=[N+]([O-])C=Cc1ccco1`, the logP was found to be 1.56.

The compound `CCOC(=O)c1ccoc1` had a logP of 1.78.

The compound `O=C(c1c[nH]c2ccccc12)C(F)(F)F` gave a logP of 3.44.

`CC(=O)Oc1c[nH]c2ccccc12`: the logP amounted to 2.01.

`Clc1cccc2cc[nH]c12`: the logP stood at 3.25.

`CCOC(=O)c1cc2ccccc2[nH]1`: the logP was found to be 3.18.

For `Clc1cccs1`, the logP was 2.54.

For the compound `CCOC(=O)c1c[nH]c2ccccc12`, the logP came out at 3.04.

As to `O=Cc1ccoc1`, the logP was 0.51.

On to `NC(=O)c1cccc2[nH]ccc12`, for which the logP stood at 0.66.

These data come from the SangsterLogP compilation.
